# Literature values as cited in patent publication US20240196931A1, “BOTANICAL SUPPLEMENT AND METHOD FOR PREVENTING DISEASES, PROMOTING GROWTH AND SURVIVAL OF AN ANIMAL BY USING THE SAME” (ACADEMIA SINICA, priority 2022, published 2024).
# Key:
# [1] = system: sepsis; details: sepsis induced by endotoxin or cecal ligation puncture
# [2] = system: melanoma and breast cancer cell metastasis; details: in vitro and in xenograft or allograft mouse tumor models
smiles,measurement,setting,value
"CC/C=C\C/C=C\C/C=C\CCCCCCCC(=O)OC[C@H](CO[C@@H]1O[C@H](CO)[C@H](O)[C@H](O)[C@H]1O)OC(=O)CCCCCCC/C=C\C/C=C\C/C=C\CC [dLGG, 1,2-di-O-α-linolenoyl-3-O-β-galactopyranosyl-sn-glycerol]",Effect against sepsis in mouse,[1],preventive and therapeutic effect
same,Effect on melanoma and breast cancer cell metastasis,[2],suppressive effects
